The source made the active and inactive calls. The calls are words filed in the database; no cut-off is given here.
Key:
[1] = biological target: T1, Estrogen receptor (Homo sapiens) (UniProt P03372); experiment: Antagonist activity at ERalpha (unknown origin) expressed in human MCF7 cells assessed as inhibition of E2-induced response at 10 uM by dual luciferase reporter gene assay; assay type: cell-based
T1 sequence (whole entry): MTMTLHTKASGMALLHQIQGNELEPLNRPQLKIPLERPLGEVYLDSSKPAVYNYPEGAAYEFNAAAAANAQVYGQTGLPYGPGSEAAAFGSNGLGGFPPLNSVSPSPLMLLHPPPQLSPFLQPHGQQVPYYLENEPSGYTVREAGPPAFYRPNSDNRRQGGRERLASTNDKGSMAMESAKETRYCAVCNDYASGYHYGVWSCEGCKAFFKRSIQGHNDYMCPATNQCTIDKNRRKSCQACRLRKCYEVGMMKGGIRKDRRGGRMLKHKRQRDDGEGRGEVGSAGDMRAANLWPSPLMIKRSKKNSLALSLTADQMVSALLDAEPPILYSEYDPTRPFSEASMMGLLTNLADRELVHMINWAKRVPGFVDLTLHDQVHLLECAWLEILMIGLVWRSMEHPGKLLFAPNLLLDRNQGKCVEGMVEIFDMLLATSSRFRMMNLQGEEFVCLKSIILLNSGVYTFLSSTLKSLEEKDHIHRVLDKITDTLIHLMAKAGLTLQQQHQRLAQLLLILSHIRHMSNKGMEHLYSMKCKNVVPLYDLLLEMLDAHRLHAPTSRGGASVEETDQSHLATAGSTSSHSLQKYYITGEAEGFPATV

Estrogen receptor [2] = biological target: T2, Estrogen receptor (Homo sapiens, UniProt P03372); experiment: Agonist activity at recombinant human GAL4-fused ERalpha expressed in HEk293 cells by luciferase reporter gene assay; assay type: cell-based
T2 sequence (P03372 whole entry): T1 sequence (whole entry)

Estrogen receptor [3] = biological target: T2, Estrogen receptor; experiment: biochemical
Description: Displacement of Fluormone ES2 from full length recombinant human untagged ERalpha expressed in Sf insect cells by fluorescence polarization assay

[4] = biological target: T1, Estrogen receptor (Homo sapiens); experiment: Agonist activity at recombinant human GAL4-fused ERalpha expressed in HEk293 cells at 30 uM by luciferase reporter gene assay; assay type: cell-based
Estrogen receptor [5] = biological target: T2, Estrogen receptor
Description: Antagonist activity at ERalpha (unknown origin) expressed in human MCF7 cells assessed as inhibition of E2-induced response by dual luciferase reporter gene assay

Structure (SMILES)	inhibition [1]	EC50 (Estrogen receptor [2]) [µM]	IC50 (Estrogen receptor [3]) [µM]	Activity [4]	IC50 (Estrogen receptor [5]) [µM]
CCCC(CCC)(c1ccc(O)c(C)c1)c1cc(C)cs1	inactive	> 30	1.13	–	–
CCCC(CCC)(c1ccc(O)c(C)c1)c1cccs1	inactive	> 30	4.68	–	–
CCCC(CCC)(c1ccc(O)c(C)c1)c1ccc(C(=O)O)n1C	inactive	–	> 10	inactive	–
CCCC(CCC)(c1ccc(O)c(C)c1)c1c[nH]c2cccc(OCc3ccccc3)c12	inactive	–	> 10	inactive	–
CCCC(CCC)(c1ccc(O)c(C)c1)c1ccc(O)c(C)c1	–	–	–	inactive	–
CCCC(CCC)(c1ccc(O)c(C)c1)c1ccc(C(=O)O)[nH]1	inactive	–	> 10	inactive	–
CCCC(CCC)(c1ccc(O)c(C)c1)c1ccc(C(=O)OCC)n1C	41%	–	1.04	inactive	–
CCCC(CCC)(c1ccc(O)c(C)c1)c1c[nH]c2cc(OCc3ccccc3)ccc12	44%	–	0.613	inactive	–
CCCC(CCC)(c1ccc(O)c(C)c1)c1ccc(C(=O)OCC)[nH]1	–	–	0.195	inactive	0.45

Reference: ChEMBL document CHEMBL4219131, “Design and synthesis of estrogen receptor ligands with a 4-heterocycle-4-phenylheptane skeleton” (Bioorg Med Chem, 2018)
